Test results taken from the NIST ThermoML archive (doi:10.1016/j.fluid.2005.03.026).
Numbers after ± are expanded uncertainties.

Assays:
[1] = molar heat capacity at constant pressure; xn = mol fraction of the nth substance listed; settings: 101.3 kPa, Liquid, Small sample (50 mg) DSC
[2] = molar heat capacity at constant pressure; settings: 101.3 kPa, Liquid, Small sample (50 mg) DSC

COC(=O)OC [dimethyl carbonate] + Cc1ccc(C)cc1
[1], x1 = 1
Settings	molar heat capacity at constant pressure [J/K/mol]
288.15 K	163.61 ± 2.5
298.15 K	164.65 ± 2.5
308.15 K	165.92 ± 2.6

CCCCCCCCCC [decane]
[2]
Settings	molar heat capacity at constant pressure [J/K/mol]
288.15 K	310.09 ± 4.8
298.15 K	315.04 ± 4.9
308.15 K	320.03 ± 5

Cc1ccc(C)cc1 [1,4-dimethylbenzene]
[2]
Settings	molar heat capacity at constant pressure [J/K/mol]
288.15 K	178.86 ± 2.8
298.15 K	182.56 ± 2.8
308.15 K	186.15 ± 2.9

Cc1ccc(C)cc1 [1,4-dimethylbenzene] + CCCCCCCCCC
molar heat capacity at constant pressure [J/K/mol], [1]
Settings	288.15 K	298.15 K	308.15 K
x1 = 0.05066	303.41 ± 4.7	308.28 ± 4.8	313.15 ± 4.8
x1 = 0.1092	295.7 ± 4.6	300.41 ± 4.7	305.32 ± 4.7
x1 = 0.1983	283.92 ± 4.4	288.58 ± 4.5	293.34 ± 4.5
x1 = 0.3105	269 ± 4.2	273.63 ± 4.2	278.21 ± 4.3
x1 = 0.3427	264.73 ± 4.1	269.34 ± 4.2	273.97 ± 4.2
x1 = 0.4538	250.03 ± 3.9	254.47 ± 3.9	258.95 ± 4
x1 = 0.4919	244.95 ± 3.8	249.41 ± 3.9	253.84 ± 3.9
x1 = 0.5995	230.71 ± 3.6	235.12 ± 3.6	239.35 ± 3.7
x1 = 0.6975	217.77 ± 3.4	222.04 ± 3.4	226.15 ± 3.5
x1 = 0.7866	206.1 ± 3.2	210.33 ± 3.3	214.31 ± 3.3
x1 = 0.8403	199.13 ± 3.1	203.21 ± 3.1	207.08 ± 3.2
x1 = 0.8993	191.5 ± 3	195.54 ± 3	199.3 ± 3.1
x1 = 0.9499	185.04 ± 2.9	188.96 ± 2.9	192.6 ± 3
